Experimental data taken from patent US8551405B2, “Electrophoretic interactive spectral methods and devices for the detection and/or characterization of biological particles” (The University of North Carolina at Chapel Hill, priority 2004, dated 2013).
Several values for one entry are separate records, joined by “and”; a condition that tells them apart may be missing. Equal entries are not always repeated. Where two headings read alike, the source gives them in different places.

Assays:
activated platelets = test: EQELS binding of proteins to thrombin-activated platelets; parameters: species or system human
Procedure: (§1) Fresh gel-filtered platelets were used in all experiments. Blood from healthy donors was collected in acid-citrate-dextrose and prostacyclin (5 μg/mL, PGI2, Sigma Chemical Co., St. Louis, Mo.). Platelet-rich-plasma was obtained by centrifugation of the anticoagulated blood at 150 g for 15 minutes. […] Gel-filtered platelets were obtained from the application of washed platelets to a Sepharose CL-2B column (Pharamica Inc., Uppsala, Sweden) equilibrated with calcium-free albumin-free Tyrode's buffer. Platelets for light scattering experiments were suspended in buffer containing 20 mM NaCl, 265 mM sucrose, 2 mM HEPES, pH 7.4 and activated with human α-thrombin (0.2 NIH units/mL). See Li, X., Gabriel, D. A. The physical exchange of factor VIII (FVIII) between von Willebrand factor and activated platelets and the effect of the FVIII B-domain on platelet binding (1997) Biochem. J. 36, 10760-10767. […] EQELS spectra of the gel filtered platelets gave a single homogeneous mobility indicating the lack of microparticles. No change is observed in the platelet mobility spectrum on the addition of rFVIIa over the concentration range where rFVIIa would be expected to bind to tissue factor if it was present, indicating an absence of TF in the preparation.
Electrophoretic quasi-elastic light scattering offers the ability to monitor changes in the surface of blood cells resulting from cell activation and ligand binding. Gabriel, D. A., Reece, N., Witte, J., and Muga, K. Electrophoretic light scattering studies on the interaction of fibrinogen with resting and activated human platelets (1993) Blood Coagul. Fibrinolysis 4, 397-403; Johnson, C., and Gabriel, D. A. (1995) Laser Light Scattering, Dover, N.Y. The electrophoretic mobility of activated platelets changes when exposed to a known ligand and that the mobility change is the result of ligand binding. […] Under these experimental conditions, resting gel-filtered platelets have an electrophoretic mobility of −0.9 (μ-cm)/(volt-sec) and activated platelets have a mobility of −0.65(μ-cm)/(volt-sec). Loading the platelet surface with a ligand, such as a FIX or FVIII, changes the platelet electrophoretic mobility. While the absolute mobility varies slightly from donor to donor, there is minimal variation in a given donor. The dependence of the change in the platelet electrophoretic mobility on the addition of FIX permits calculation of the binding constant for FIX to the activated platelet. It is not the magnitude of the change in the platelet electrophoretic mobility, μ, that determines the binding constant, but how the change in μ depends on the concentration of the ligand FIX. The effect of ligand binding on the platelet mobility varies with the ligand, and is dependent on the extent of ligand binding, the extent of surface modification caused by ligand binding, and on the net charge of the ligand itself.
EQELS measurements were made on a multi-angle quasi-elastic light scattering spectrometer (DELSA 440, Coulter Electronics, Inc., Hialeah, Fla.). See Li, X., Gabriel, D. A. Biochem. J. 36, 10760-10767 (1997); Johnson, C., and Gabriel, D. A. (1995) Laser Light Scattering, Dover, N.Y.
Activated platelets and activated FVIII were prepared by activation with 0.2 NIH U/mL human α-thrombin for 5 minutes. After activation, residual thrombin was inactivated by addition of 2.5 μM phenylalanyl prolinyl arginine chloromethyl ketone (PPACK, Calbiochem, La Jolla, Calif.). FIX, FIXa, FVIIIa, and rFVIIa were incubated with platelets for 10 minutes before EQELS measurements.
The binding coefficient (Kd) of the proteins to platelets was determined by fitting the data from the binding experiment to:
[formula] where, μ is the electrophoretic mobility, μ0 is the mobility in the absence of added protein, Δμ is the calculated maximal change in mobility at the saturating concentration of protein. This model assumes one class of binding sites for the specific protein ligand on the platelets. […]

[1] = system: activated platelet surface; details: literature, read-out: Kd, binding to activated platelet surface, cited from earlier work
resting platelets = test: EQELS binding to resting platelets; parameters: species or system human; details: data not shown
Procedure: as §1, with “preparation. […]” for “preparation.”

[2] = biological target: T1, platelet-bound zymogen FIX (Homo sapiens, UniProt P00740); test: EQELS time and concentration dependence of zymogen FIX activation by rFVIIa on activated platelets; format: cell-based; details: FIX 10 nM
T1 construct: made in house
T1 sequence (P00740 29-461 limits assumed): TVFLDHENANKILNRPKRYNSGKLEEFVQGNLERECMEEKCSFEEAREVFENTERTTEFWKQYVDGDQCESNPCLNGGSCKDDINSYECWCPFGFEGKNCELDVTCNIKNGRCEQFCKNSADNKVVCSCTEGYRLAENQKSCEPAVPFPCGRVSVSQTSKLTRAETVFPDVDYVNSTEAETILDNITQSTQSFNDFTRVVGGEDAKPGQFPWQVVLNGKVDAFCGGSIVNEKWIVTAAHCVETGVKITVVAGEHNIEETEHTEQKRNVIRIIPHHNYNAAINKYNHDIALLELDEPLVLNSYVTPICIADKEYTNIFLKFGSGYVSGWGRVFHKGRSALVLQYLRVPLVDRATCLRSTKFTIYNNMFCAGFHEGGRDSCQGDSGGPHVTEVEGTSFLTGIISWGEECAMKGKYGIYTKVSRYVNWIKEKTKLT
Procedure: FIG. 11A is a graph of the time and concentration dependence of rFVIIa on the activation of zymogen FIX. Platelets were activated with thrombin followed by inhibition of thrombin with PPACK. The activated platelets were then loaded with rFVIIa (0.075 nM, 1 nM, or 10 nM) and monitored as a function of time. The mobility at the initial time (zero) is the mobility for platelets loaded with zymogen FIX. […] Changes in the platelet mobility result from FIX activation.
Zymogen FIX at varying concentrations was added to the thrombin activated platelets that in some experiments included FVIIIa followed by a 10 minute incubation period. After this incubation period, rFVIIa was added to activated platelets coated with zymogen FIX. The EQELS spectrum was then obtained.
A decrease in the […] of FIX was used to detect activation of zymogen FIX by rFVIIa.

FIX = biological target: T2, FIX (Homo sapiens, UniProt P00740); test: Functional (chromogenic) assay for activation of FIX on activated platelets; format: biochemical
T2 construct: made in house
T2 sequence (P00740 29-461 limits assumed): as above
Procedure: FIG. 12 is a graph illustrating the amount of FIX activated as a function of time and at different concentrations of rFVIIa (between 0 nM and 49 nM) for a chromogenic assay to show activation of FIX by rFVIIa in the absence of TF.
All assays were run in Tyrodes buffer with 2 mM CaCl2. Platelets were activated with 0.2 NIH units/ml of human α-thrombin for 10 minutes at 37° C. FVIII at 5 units/ml were included with the platelets and thrombin. Thrombin was neutralized with hirudin from a medium titrated against an α-thrombin standard. FVIIa at varying concentrations was added to the platelets for 10 minutes. Plasma concentrations of FIX at 80 nM were added and incubated for varied times. FIXa was assayed in a two stage assay. Platelets with activated FIX were incubated with plasma concentrations of FX for 5 minutes, then the amount of FXa was measured by adding plasma concentrations of prothrombin along with a […] (0.5 mM Perfachrome Th). […] Thrombin generation was measured as the change in the absorbance as the p-nitroanilide substrate was cleaved as a function of time. As expected, substrate cleavage fit a second order pattern and the rate of thrombin generation was determined from the first derivative of the absorbance versus time data.

[3] = rFVIIa concentration after therapeutic infusion; format: in vivo; details: therapeutic infusion for a bleeding diathesis, estimated
[4] = 4 mM Ca++, 3 nM FVIIIa, read-out: Binding Coefficient (Kd), interaction with activated platelets
[5] = 4 mM Ca++, No FVIIIa, read-out: Binding Coefficient (Kd), interaction with activated platelets

Substance: Activated coagulation factor IX [FIXa]
- Kd (activated platelets; [4]): 0.57 nM
- Kd (activated platelets; [5]): 1.9 nM
- Kd (activated platelets; 4 mM calcium, 3 nM rFVIIIa, read-out: binding constant (Kd) to activated platelets): 0.569 nM and 0.6 nM
- Kd (activated platelets; 4 mM calcium, no rFVIIIa, read-out: binding constant (Kd) to activated platelets): 1.9 nM and 2 nM
- binding to activated platelets (change in platelet electrophoretic mobility) (activated platelets; absence of calcium): no binding
- Kd ([1]; in the presence of rFVIIIa): 0.6 nM
- Kd ([1]; no rFVIIIa): 2.5 nM
- binding to resting platelets (resting platelets): do not bind

Substance: Coagulation factor IX [FIX]
- Kd (activated platelets; 10 nM rFVIIa, 4 mM calcium, 3 nM rFVIIIa, read-out: binding coefficient (Kd) for zymogen FIX to activated platelets in presence of rFVIIa): 0.84 nM
- Kd (activated platelets; 10 nM rFVIIa, 4 mM calcium, no rFVIIIa, 10 min incubation, read-out: binding coefficient (Kd) for zymogen FIX to activated platelets in presence of rFVIIa): 1.62 nM and 1.6 nM
- Kd (activated platelets; [4]): 5.8 nM
- Kd (activated platelets; [5]): 7.9 nM
- Kd (activated platelets; FIX + FVIIa (10 nM), 4 mM Ca++, No FVIIIa, read-out: Binding Coefficient (Kd) for FIX in the presence of FVIIa, activated platelets): 1.62 nM
- binding to resting platelets (resting platelets): do not bind

Substance: Recombinant activated coagulation factor Vila [rFVIIa]
- activation of zymogen FIX by rFVIIa (EQELS) ([2]; 0.075 nM rFVIIa, approximately 30 minutes): minimal activation
- activation of zymogen FIX by rFVIIa (EQELS) ([2]; 1 nM rFVIIa): further activation
- conversion of zymogen FIX to activated FIX by rFVIIa (EQELS) ([2]; 10 nM rFVIIa): still more rapid rate
- FXa and thrombin production (FIX; dependent on concentration of added rFVIIa, not shown in FIG. 12): produced
- activation of platelet-bound zymogen FIX (chromogenic assay) (FIX; rFVIIa 10, 20, 30, 40 nM, absence of TF): linear in time and directly proportional to the concentration of added rFVIIa
- concentration of rFVIIa after therapeutic infusion [3]: approximately 30 nM
- change in platelet mobility on addition of rFVIIa (activated platelets; concentration range where rFVIIa would be expected to bind tissue factor): no change
- change in platelet surface charge (activated platelets; conditions identical to FIXa binding experiment): does not change
- rFVIIa concentration at which it binds to platelets in the presence of FIX (activated platelets; in the presence of FIX): ≥ 10 nM
- change in electrophoretic mobility of platelets on addition of rFVIIa (activated platelets; rFVIIa 0 to 40 nM): did not change
- binding of rFVIIa to activated platelets (activated platelets; rFVIIa at 10 nM): does not bind
- binding of rFVIIa to activated platelets (activated platelets; rFVIIa greater than 100 nM): can be detected
- direct binding of rFVIIa to activated platelet surface (activated platelets; rFVIIa less than 100 nM, even in the presence of calcium): no direct binding
- binding of rFVIIa to activated platelets (activated platelets; rFVIIa range of 0.75 to 10 nM): does not bind
- Kd (activated platelets; very high rFVIIa concentrations, absence of calcium (unpublished data), read-out: Kd of rFVIIa binding to platelets): 250 nM
- Kd (activated platelets; very high rFVIIa concentrations, presence of calcium (unpublished data), read-out: Kd of rFVIIa binding to platelets): 123 nM
